From the supplement of paper PMC10307832

How the values were obtained:
Assay in all cases: relative viability (nuclei count vs DMSO), 5 days (fraction); higher = more cells survive
QS11 + OSI-027 = compound: C1CC2=C(C1)C=C(C=C2)OC3=NC(=C4C(=N3)N(C=N4)CC5=CC=C(C=C5)C6=CC=CC=C6)N[C@@H](CC7=CC=CC=C7)CO [QS11] + COc1cccc2cc(-c3nc([C@H]4CC[C@H](C(=O)O)CC4)n4ncnc(N)c34)[nH]c12 [OSI-027] (partner 0.5 µM)
Summary of the method: (§1)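 The day after seeding in 1536-well plates, lung cancer cell lines were treated by pin tool with a single drug, or with a fixed anchor-drug dose together with five library-drug doses (not always all listed) in √10 steps. After 5 days, a combined fix-and-stain solution (final 0.05% Triton X-100, 1% formaldehyde, 1 ug/ml Hoechst) was added. Nuclei counted on 4× images gave relative viability as treated counts over vehicle counts, reported as the median of duplicate plates.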

QS11 + Decitabine = compound: C1CC2=C(C1)C=C(C=C2)OC3=NC(=C4C(=N3)N(C=N4)CC5=CC=C(C=C5)C6=CC=CC=C6)N[C@@H](CC7=CC=CC=C7)CO [QS11] + Nc1ncn([C@H]2C[C@H](O)[C@@H](CO)O2)c(=O)n1 [Decitabine] (partner 2 µM)
Summary of the method: as §1

AZ628 + AZD7762 = compound: CC1=C(C=C(C=C1)NC(=O)C2=CC(=CC=C2)C(C)(C)C#N)NC3=CC4=C(C=C3)N=CN(C4=O)C [AZ628] + NC(=O)Nc1cc(-c2cccc(F)c2)sc1C(=O)N[C@H]1CCCNC1 [AZD7762] (partner 0.2 µM)
Summary of the method: as §1

AZ628 + Navitoclax = compound: CC1=C(C=C(C=C1)NC(=O)C2=CC(=CC=C2)C(C)(C)C#N)NC3=CC4=C(C=C3)N=CN(C4=O)C [AZ628] + CC1(C)CCC(c2ccc(Cl)cc2)=C(CN2CCN(c3ccc(C(=O)NS(=O)(=O)c4ccc(N[C@H](CCN5CCOCC5)CSc5ccccc5)c(S(=O)(=O)C(F)(F)F)c4)cc3)CC2)C1 [Navitoclax] (partner 0.5 µM)
Summary of the method: as §1

Row | Cell Line | relative viability (QS11 + OSI-027; first compound 0.08 µM) | relative viability (QS11 + OSI-027; first compound 0.253 µM) | relative viability (QS11 + OSI-027; first compound 0.8 µM) | relative viability (QS11 + OSI-027; first compound 2.53 µM) | relative viability (QS11 + OSI-027; first compound 8 µM) | relative viability (QS11 + Decitabine; first compound 0.08 µM) | relative viability (QS11 + Decitabine; first compound 0.253 µM) | relative viability (QS11 + Decitabine; first compound 0.8 µM) | relative viability (QS11 + Decitabine; first compound 2.53 µM) | relative viability (QS11 + Decitabine; first compound 8 µM) | relative viability (AZ628 + AZD7762; first compound 0.08 µM) | relative viability (AZ628 + AZD7762; first compound 0.253 µM) | relative viability (AZ628 + AZD7762; first compound 0.8 µM) | relative viability (AZ628 + AZD7762; first compound 2.53 µM) | relative viability (AZ628 + AZD7762; first compound 8 µM) | relative viability (AZ628 + Navitoclax; first compound 0.08 µM) | relative viability (AZ628 + Navitoclax; first compound 0.253 µM) | relative viability (AZ628 + Navitoclax; first compound 0.8 µM) | relative viability (AZ628 + Navitoclax; first compound 2.53 µM) | relative viability (AZ628 + Navitoclax; first compound 8 µM)
1 | HOP-62 | 0.879 | 0.845 | 0.811 | 0.65 | 0.837 | 0.244 | 0.241 | 0.189 | 0.208 | 0.233 | 0.831 | 0.555 | 0.613 | 0.479 | 0.297 | 1.09 | 1.17 | 1.02 | 1.1 | 0.729
2 | LC-2-ad | 0.783 | 0.413 | 0.873 | 0.847 | 0.79 | 0.776 | 0.775 | 0.691 | 0.722 | 0.712 | 0.909 | 0.85 | 1.02 | 0.922 | 0.759 | 0.406 | 0.348 | 0.589 | 0.54 | 0.347
3 | LK-2 | 0.181 | 0.238 | 0.188 | 0.212 | 0.22 | 0.246 | 0.332 | 0.37 | 0.288 | 0.23 | 0.526 | 0.354 | 0.273 | 0.357 | 0.259 | 1.07 | 0.887 | 0.847 | 0.818 | 0.634
4 | LOU-NH91 | 0.678 | 0.722 | 0.693 | 0.728 | 0.71 | 0.807 | 0.8 | 0.776 | 0.852 | 0.821 | 0.75 | 0.712 | 0.727 | 0.68 | 0.603 | 0.681 | 0.713 | 0.713 | 0.654 | 0.4
5 | LU99A | 0.255 | 0.306 | 0.299 | 0.291 | 0.315 | 0.873 | 0.967 | 0.963 | 0.922 | 0.931 | 0.436 | 0.363 | 0.415 | 0.33 | 0.22 | 0.856 | 0.859 | 0.865 | 0.895 | 0.296
6 | LXF-289 | 0.764 | 0.805 | 0.692 | 0.873 | 0.82 | 0.347 | 0.361 | 0.346 | 0.443 | 0.396 | 1.12 | 1.08 | 0.98 | 1.06 | 0.652 | 0.941 | 0.875 | 0.87 | 0.942 | 0.568
7 | NCI-H23 | 0.626 | 0.516 | 0.52 | 0.453 | 0.305 | 0.282 | 0.305 | 0.311 | 0.292 | 0.317 | 0.226 | 0.23 | 0.151 | 0.184 | 0.146 | 0.878 | 0.868 | 0.61 | 0.783 | 0.559
